The source of these data is PubChem BioAssay (NCI).

Structures are written as SMILES. Where “and” joins values, the source holds several entries; their conditions need not be identical. Equal values may be shown once.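 All cell lines were grown in 96-well plates and treated with compound for 48 hours. The concentration for 50% growth inhibition is given as GI50. At the TGI there is no net growth.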

Common to all, as to experiment: NCI anticancer screen, dose series, 48 h
For experiment [1], the system named is U251 CNS.
For experiment [2], the system named is HOP-62 NSCLC.
The test system of experiment [3] is NCI/ADR-RES ovarian.
Experiment [4] deals with SK-OV-3 ovarian.
The subject of experiment [5] is NCI-H226 lung.
Experiment [6] deals with OVCAR-3 ovarian.
For experiment [7], the system named is HT29 colon.
The test system of experiment [8] is NCI-H23 lung.
Experiment [9] has as its system K-562 leukemia.
Experiment [10] concerns HCT-116 colon.

With `O=C1c2ccccc2C(=O)c2c1ccc1c(=O)n(-c3ccccc3C(F)(F)F)nnc21`, the GI50 in [1] was 2.66 µM; in experiment [2], 1.28 µM; in experiment [3], 2.05 µM; in experiment [4], 3.52 µM; in experiment [5] it was 2.38 µM; in experiment [6] it was 0.315 µM. In addition, the GI50 in experiment [7] is 3.43 µM; in experiment [8], 1.34 µM; in [9] it was 1.76 µM; in experiment [10], 1.85 µM. Besides, the TGI in [1] was 17.9 µM; in experiment [2], 19.1 µM; in experiment [3], 9.23 µM; in [4] it was over 100 µM; in experiment [5], 5.87 µM; in experiment [6], 1.42 µM. Moreover, the TGI in [7] is over 100 µM; in [8], 3.51 µM; in experiment [9], over 100 µM; in [10], 10.5 µM.

With `CC(c1ccccc1)[C@@H](C(=O)Nc1ccc(I)cc1F)N1C(=O)N[C@H](c2ccc(OC[C@H](O)CO)cc2)C1=O` (stereo not given in full), the GI50 in [1] was 7.86 µM; in experiment [2], 17 µM; in experiment [3], over 25 µM; in experiment [4] it was over 25 µM; in experiment [5] it was 14.5 µM; in experiment [6], over 21.3 µM. Also, the GI50 is 0.0683 µM in experiment [7], 0.902 µM in experiment [8], 9.38 µM in experiment [9] and 1.12 µM in experiment [10]. Besides, the TGI in [1], in experiment [2], in [3], in [4], in experiment [5] and in experiment [6] was over 25 µM throughout. Moreover, the TGI in [7], in experiment [8], in [9] and in [10] was over 25 µM throughout.

As for `C/C(=N/O)c1ccc2c(c1)/C(=N/O)c1ccccc1-2`, the GI50 in experiment [1] was 21.2 µM; in experiment [2], 25 µM; in [3] it was 21 µM; in [4], 35.7 µM; in [5] it was 22.2 µM; in experiment [6], 25.5 µM. In addition, the GI50 is 18.2 µM in experiment [7], 18.3 µM in experiment [8], 15.8 µM in [9] and 20.7 µM in [10]. Besides, the TGI is 46 µM in experiment [1]; 56.4 µM in experiment [2]; 48.6 µM in [3]; over 100 µM in experiment [4]; 49.7 µM in experiment [5]; 57.7 µM in experiment [6]. For the same molecule, the TGI worked out at 40.7 µM in [7], 34.2 µM in experiment [8], 32.4 µM in [9] and 38.5 µM in experiment [10].

As to `CCN(CC)CCC(CNc1ccnc2cc(Cl)ccc12)c1ccccc1` (stereo not given), the GI50 in experiment [1] was 3.93 µM; in [2], 12.1 µM; in [3] it was 9.92 µM; in [4], 18.4 µM; in experiment [5], 11.3 µM; in experiment [6], 14.9 µM. The GI50 in experiment [7] was 0.493 µM; in experiment [8], 11.5 µM; in experiment [9], 1.46 µM; in [10], 2.8 µM. For the same molecule, the TGI in experiment [1] is 14 µM; in [2] it was 48.9 µM; in [3], 48.4 µM; in experiment [4], 52.8 µM; in [5], 41.1 µM; in [6], over 100 µM. Besides, the TGI in experiment [7] was 10.4 µM; in experiment [8], 38.8 µM; in experiment [9], 5.61 µM; in [10], 15.4 µM.

On to `CC(C)(C)NC(=O)[C@H]1CC[C@H]2[C@@H]3CC[C@H]4NC(=O)C=C[C@]4(C)[C@H]3CC[C@]12C`, for which the GI50 in experiment [1], in [2], in experiment [3], in experiment [4], in [5] and in [6] was over 100 µM in each case. The GI50 in experiment [7] was 44.9 µM and 69.6 µM; in experiment [8] it was over 100 µM; in experiment [9], 53.5 µM and > 100 µM; in [10] it was over 100 µM. The TGI in experiment [1], in [2], in experiment [3], in experiment [4], in experiment [5] and in experiment [6] was over 100 µM throughout. The TGI in experiment [7], in experiment [8], in [9] and in experiment [10] was over 100 µM in each case.

As to `Cc1ccc(/C=C/c2c(C(=O)/C=C/c3ccc(Cl)cc3)c(C)nc3ccccc23)cc1`, the GI50 in [1] was 1.7 µM; in experiment [2], 2.15 µM; in experiment [3] it was 1.99 µM; in [4] it was 3.74 µM; in experiment [5], 1.92 µM; in [6], 1.84 µM. Moreover, the GI50 in experiment [7] is 2.05 µM; in [8] it was 1.38 µM; in [9], 2.63 µM; in experiment [10] it was 0.526 µM. In addition, the TGI in [1] came out at 3.38 µM; in experiment [2], 4.68 µM; in experiment [3], 4.45 µM; in experiment [4], 15.7 µM; in experiment [5], 3.92 µM; in [6] it was 3.51 µM. The TGI in [7] is 14.9 µM; in experiment [8] it was 3.22 µM; in experiment [9], over 100 µM; in experiment [10], 2.02 µM.
